In patent US20110206607A1, “IMIDAZOL (1,2-A)PYRIDINES AND RELATED COMPOUNDS WITH ACTIVITY AT CANNABINOID CB2 RECEPTORS” (priority 2007, published 2011):

Biological target: T1, human CB2 (Homo sapiens, UniProt P34972)
T1 construct: expressed in transfected cells; host or cells: HEK-293T (transient transfection, membrane preparation)
Assay: CB2 receptor binding assay, block of [3H]-CP 55,940 binding
Settings: membranes of HEK-293T cells transfected with human CB2 cDNA; 1.5 nM [3H]-CP 55,940
Method: Membrane preparation—HEK-293T cells were cultured according to ATCC (Manassas, Va.) guidelines and transfected with human CB2 cDNA (SEQ ID NO:1) (Genbank X74328), operably linked to the SV40 promoter, using Polyfect (Qiagen, Valencia, Calif.) or Fugene (Roche, Nutley, N.J.) according to manufacturer's instructions. 48 h after transfection cells were harvested in ice cold membrane buffer (20 mM HEPES, 6 mM MgCl2, 1 mM EDTA, pH 7.2) using a cell scraper. Cells were transferred to a nitrogen cavitation chamber and a pressure of […] was applied for 30 min. The pressure was released and the cell debris was collected and centrifuged at 1000 g at 4° C. for 10 min. The supernatant was collected and the spin was repeated until the supernatant was free of precipitate. Membranes were then pelleted by centrifugation at 12.000 g at 4° C. for 20 min. Membranes were resuspended in an appropriate amount of membrane buffer. The membrane concentration was determined using a BioRad (Hercules, Calif.) protein assay dye reagent according to manufacturer's instructions. Membranes were diluted to 1 mg/ml and aliquots snap-frozen in liquid nitrogen and store at −80° C.
Binding assay—0.5-10 ng of membranes were incubated in binding buffer (50 mM Tris, 0.5 mM EDTA, 0.1% BSA, pH 7.4) in the presence of 1.5 nM radioligand ([^3H]-CP 55,940 Perkin Elmer) and varying concentrations of ligands (total volume 100 μL in a 96 well plate). Membranes were filtered onto a 96 well GF/B filterplate (Packard Bioscience, Shelton, Conn.) and washed with […] wash buffer (25 mM HEPES, 1 mM CaCl2, 5 mM MgCl2, 0.25M NaCl) using a Filtermate 196 Harvester (Packard Instruments, Downers Grove, Ill.). The filter plates were dried under a heat lamp before addition of 50 μL of scintillation fluid to each well (Microscint 20, Packard, Shelton, Conn.). Plates were counted on a Topcount NXT (Packard, Shelton, Conn.).
Data Analysis—Graphs were plotted and KD values were determined by nonlinear regression analysis using Prism software (GraphPad version 4.0, San Diego, Calif., USA).

T1 sequence (P34972 whole entry): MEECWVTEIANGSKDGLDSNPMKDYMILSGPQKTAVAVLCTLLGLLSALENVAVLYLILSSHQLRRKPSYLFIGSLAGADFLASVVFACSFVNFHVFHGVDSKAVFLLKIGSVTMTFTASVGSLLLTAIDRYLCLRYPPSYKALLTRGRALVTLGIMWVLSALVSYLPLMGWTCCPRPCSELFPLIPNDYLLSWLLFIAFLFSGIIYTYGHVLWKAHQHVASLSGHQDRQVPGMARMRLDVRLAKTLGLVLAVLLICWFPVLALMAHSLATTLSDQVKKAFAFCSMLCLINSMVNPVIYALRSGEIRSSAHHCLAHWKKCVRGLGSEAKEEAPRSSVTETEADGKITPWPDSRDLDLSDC

pKi | Ki | SMILES
7.4 |  | Cc1ccc2nc(-c3c(F)cccc3F)c(Nc3ccc4c(c3)OCCO4)n2c1 [CR-48]
6.1 |  | COc1cc(-c2nc3cc(C)ccn3c2Nc2ccc3c(c2)OCO3)cc(F)c1O [CR-130]
6.6 |  | Cc1cccc2nc(-c3c(O)cccc3F)c(Nc3ccc4c(c3)OCCO4)n12 [CR-86]
6.9 |  | COc1ccc2nc(-c3c(Cl)cncc3Cl)c(Nc3ccc4c(c3)OCCO4)n2c1 [CR-66]
6.8 |  | COc1cc(-c2nc3ccccn3c2Nc2ccc3c(c2)OCCO3)ccc1O [CR-71]
5.9 |  | COc1cc(O)ccc1-c1nc2ccncn2c1Nc1ccc2c(c1)OCCO2 [CR-120]
8.0 |  | Cc1cccc2nc(-c3c(F)cccc3Cl)c(Nc3ccc4c(c3)OCCO4)n12 [CR-25]
6.8 |  | COc1cc(-c2nc3c(C)cccn3c2Nc2ccc3c(c2)OCCO3)ccc1O [CR-72]
6.4 |  | Fc1cccc(Cl)c1-c1nc2cnccn2c1Nc1ccc2c(c1)OCCO2 [CR-103]
9.1 |  | COc1cccc2nc(-c3c(F)ccc(OCF)c3Cl)c(Nc3ccc4c(c3)OCCO4)n12 [CR-11]
6.7 |  | COc1cc(-c2nc3ccc(Cl)cn3c2Nc2ccc3c(c2)OCCO3)ccc1O [CR-77]
6.8 |  | Cc1cccc2nc(-c3ccc(OCCF)c(O)c3)c(Nc3ccc4c(c3)OCCO4)n12 [CR-69]
6.5 |  | COc1cc(-c2nc3ccncn3c2Nc2ccc3c(c2)OCCO3)ccc1O [CR-98]
8.2 |  | COc1cccc2nc(-c3c(Cl)cc(O)cc3Cl)c(Nc3ccc4c(c3)OCCO4)n12 [CR-23]
5.9 |  | COc1cccc(F)c1-c1nc2cnccn2c1Nc1ccc2c(c1)OCCO2 [CR-125]
6.7 |  | COc1cc(-c2nc3ccc(C)cn3c2Nc2ccc3c(c2)OCCO3)ccc1O [CR-81]
8.1 |  | CCOc1cccc2nc(-c3c(F)cccc3Cl)c(Nc3ccc4c(c3)OCCO4)n12 [CR-24]
5.7 |  | COc1cc(-c2nc3ccccn3c2Nc2ccc3c(c2)OCCO3)cc(F)c1O [CR-93]
7.8 |  | COc1cnc2nc(-c3c(F)cccc3Cl)c(Nc3ccc4c(c3)OCCO4)n2c1 [CR-31]
5.8 |  | COc1cccc(OC)c1-c1nc2cnccn2c1Nc1ccc2c(c1)OCCO2 [CR-118]
7.5 |  | FCCOc1ccc2nc(-c3c(F)cccc3Cl)c(Nc3ccc4c(c3)OCCO4)n2c1 [CR-41]
5.9 |  | COc1cccc(OC)c1-c1nc2cc(C)ccn2c1Nc1ccc2c(c1)OCCO2 [CR-126]
7.5 |  | CNc1cccc2nc(-c3c(F)cccc3Cl)c(Nc3ccc4c(c3)OCCO4)n12 [CR-43]
7.1 |  | COc1cc(-c2nc3cc(C)ccn3c2Nc2ccc3c(c2)OCCO3)ccc1O [CR-60]
7.6 |  | Cc1ccc2nc(-c3c(Cl)cccc3Cl)c(Nc3ccc4c(c3)OCCO4)n2c1 [CR-39]
5.2 |  | Cc1ccn2c(Nc3ccc4c(c3)OCCO4)c(-c3ccc(F)nc3)nc2c1 [CR-54]
6.3 |  | COc1cc(O)ccc1-c1nc2ncccn2c1Nc1ccc2c(c1)OCCO2 [CR-111]
7.7 |  | Fc1cccc(Cl)c1-c1nc2ccccn2c1Nc1ccc2c(c1)OCCO2 [CR-38]
7.9 |  | CC(C)Oc1cccc2nc(-c3c(F)cccc3Cl)c(Nc3ccc4c(c3)OCCO4)n12 [CR-29]
7.3 |  | Cc1cccc(C)c1-c1nc2ccccn2c1Nc1ccc2c(c1)OCCO2 [CR-51]

Continued, molecule first:

SMILES | pKi | Ki
c1ccc(-c2nc3ncccn3c2Nc2ccc3c(c2)OCCO3)nc1 [CR-115] | 6.2 | 
COc1cccc2nc(-c3c(Cl)cncc3Cl)c(Nc3ccc4c(c3)OCCO4)n12 [CR-20] | 8.4 | 
FCCOc1cccc2nc(-c3c(F)cccc3Cl)c(Nc3ccc4c(c3)OCCO4)n12 [CR-37] | 7.7 | 
COc1cnc2nc(-c3c(F)cncc3F)c(Nc3ccc4c(c3)OCCO4)n2c1 [CR-137] | 6.5 | 
Cc1cccc2nc(-c3c(F)cc(O)cc3F)c(Nc3ccc4c(c3)OCCO4)n12 [CR-28] | 7.9 | 
Cc1cccc2nc(-c3c(F)cccc3Cl)c(N(C)c3ccc4c(c3)OCCO4)n12 [CR-124] | 6.0 | 
COc1cccc2nc(-c3c(C)cc(OC[18F])cc3C)c(Nc3ccc4c(c3)OCCO4)n12 [CR-136] | 9.5 | 
Cc1cccn2c(Nc3ccc4c(c3)OCO4)c(-c3c(F)cccc3Cl)nc12 [CR-129] | 6.4 | 
COc1cccc(OC)c1-c1nc2ncccn2c1Nc1ccc2c(c1)OCCO2 [CR-121] | 6.0 | 
FCCOc1cncc(F)c1-c1nc2cccc(OCCF)n2c1Nc1ccc2c(c1)OCCO2 [CR-8] | 6.6 | 
Fc1cccc(F)c1-c1nc2cnccn2c1Nc1ccc2c(c1)OCCO2 [CR-92] | 6.6 | 
Fc1cccc(F)c1-c1nc2ccccn2c1Nc1ccc2c(c1)OCCO2 [CR-56] | 7.3 | 
COc1cccc2nc(-c3c(F)cccc3Cl)c(NC(=O)c3ccc4c(c3)OCCO4)n12 [CR-117] | 5.7 | 
Fc1cccnc1-c1nc2ccccn2c1Nc1ccc2c(c1)OCCO2 [CR-113] | 6.3 | 
Fc1cc(-c2nc3cnccn3c2Nc2ccc3c(c2)OCCO3)ccn1 [CR-83] | 5.5 | 
Fc1ccc(-c2nc3cnccn3c2Nc2ccc3c(c2)OCCO3)cn1 [CR-89] | 5.5 | 
Cc1cccc2nc(-c3c(F)cc(C#N)cc3F)c(Nc3ccc4c(c3)OCCO4)n12 [CR-53] | 7.3 | 
Fc1cccc(Cl)c1-c1nc2ccccn2c1Nc1ccc2c(c1)OCO2 [CR-128] | 6.7 | 

SMILES | pKi | Ki
COc1cccc2nc(-c3c(C)cc(OCCO)cc3C)c(Nc3ccc4c(c3)OCCO4)n12 [CR-5] | 8.3 | 
Cc1ccn2c(Nc3ccc4c(c3)OCCO4)c(-c3ncccc3F)nc2c1 [CR-106] | 5.7 | 
Cc1cc(OCCF)cc(C)c1-c1nc2cccc(F)n2c1Nc1ccc2c(c1)OCCO2 [CR-36] | 7.7 | 
Fc1cccc(-c2nc3ccccn3c2Nc2ccc3c(c2)OCCO3)n1 [CR-63] | 7.0 | 
Cc1ccn2c(Nc3ccc4c(c3)OCCO4)c(-c3ccccn3)nc2c1 [CR-119] | 5.9 | 
COc1cccc2nc(-c3c(F)cc(OCF)cc3F)c(Nc3ccc4c(c3)OCCO4)n12 [CR-3] | 8.6 | 
COc1cccc2nc(-c3c(F)ccc(OCC[18F])c3F)c(Nc3ccc4c(c3)OCCO4)n12 [CR-133] |  | 1.58 nM
Fc1cccnc1-c1nc2cnccn2c1Nc1ccc2c(c1)OCCO2 [CR-76] | 5.2 | 
Cc1cccc2nc(-c3ncccc3F)c(Nc3ccc4c(c3)OCCO4)n12 [CR-57] | 7.2 | 
COc1cccc2nc(-c3c(C)cc(OCC[18F])cc3C)c(Nc3ccc4c(c3)OCCO4)n12 [CR-132] |  | 5.01 nM
COc1ccnc2nc(-c3c(C)cc(OCCF)cc3C)c(Nc3ccc4c(c3)OCCO4)n12 [CR-73] | 6.8 | 
COc1cccc2nc(-c3c(F)ccc(OCF)c3F)c(Nc3ccc4c(c3)OCCO4)n12 [CR-1] | 9.5 | 
COc1cccc2nc(-c3c(Cl)ncnc3Cl)c(Nc3ccc4c(c3)OCCO4)n12 [CR-22] | 8.2 | 
Cc1cncc2nc(-c3c(F)cccc3Cl)c(Nc3ccc4c(c3)OCCO4)n12 [CR-58] | 7.2 | 
Clc1cccc(Cl)c1-c1nc2cnccn2c1Nc1ccc2c(c1)OCCO2 [CR-94] | 6.6 | 
COc1cccc2nc(-c3c(C)cc(OCCF)cc3C)c(Nc3ccc4c(c3)OCCO4)n12 [CR-21] | 8.3 | 
FCCOc1cccc2nc(-c3c(F)cncc3F)c(Nc3ccc4c(c3)OCCO4)n12 [CR-7] | 7.4 | 
Cc1cccn2c(Nc3ccc4c(c3)OCCO4)c(-c3ccccn3)nc12 [CR-101] | 6.5 | 
